Test results reported in the NIST ThermoML archive (doi:10.1021/je060271a).
Several values for one entry are separate records, joined by “and”; a condition that tells them apart may be missing. Equal entries are not always repeated.

Conditions: Liquid, Vibrating tube method

CCCCCC(=O)OCC(COC(=O)CCCCC)(COC(=O)CCCCC)COC(=O)CCCCC [pentaerythritol tetrahexanoate]
Conditions | mass density
343.15 K, 29943 kPa | 978.1 kg/m3
343.15 K, 29977 kPa | 978.2 kg/m3
343.15 K, 30005 kPa | 978.1 kg/m3
343.15 K, 30034 kPa | 978.2 kg/m3
343.15 K, 30068 kPa | 978.2 kg/m3
343.15 K, 34037 kPa | 980.7 kg/m3 and 980.8 kg/m3
343.15 K, 34038 kPa | 980.6 kg/m3
343.15 K, 34070 kPa | 980.7 kg/m3
343.15 K, 34080 kPa | 980.7 kg/m3
343.15 K, 34257 kPa | 980.8 kg/m3
343.15 K, 34258 kPa | 980.9 kg/m3
343.15 K, 34259 kPa | 981 kg/m3 and 980.9 kg/m3
343.15 K, 34260 kPa | 980.7 kg/m3 and 980.8 kg/m3
343.15 K, 34261 kPa | 980.8 kg/m3
343.15 K, 34262 kPa | 980.8 kg/m3 and 980.9 kg/m3
343.15 K, 34263 kPa | 980.7 kg/m3
343.15 K, 34264 kPa | 980.9 kg/m3 and 980.8 kg/m3
343.15 K, 34271 kPa | 980.8 kg/m3
343.15 K, 34272 kPa | 980.9 kg/m3
343.15 K, 34279 kPa | 980.9 kg/m3 and 981 kg/m3
343.15 K, 34280 kPa | 980.8 kg/m3 and 980.9 kg/m3
343.15 K, 34281 kPa | 980.9 kg/m3
343.15 K, 34282 kPa | 980.8 kg/m3 and 980.9 kg/m3
343.16 K, 205.2 kPa | 957.2 kg/m3
343.16 K, 205.3 kPa | 957.3 kg/m3
343.16 K, 205.5 kPa | 957.1 kg/m3 and 957.3 kg/m3
343.16 K, 205.7 kPa | 957.3 kg/m3
343.16 K, 205.9 kPa | 957.3 kg/m3 and 957.2 kg/m3
343.16 K, 206 kPa | 957.2 kg/m3 and 957.3 kg/m3
343.16 K, 206.2 kPa | 957.2 kg/m3 and 957.3 kg/m3
343.16 K, 206.4 kPa | 957.3 kg/m3 and 957.2 kg/m3
343.16 K, 206.6 kPa | 957.2 kg/m3
343.16 K, 206.7 kPa | 957.2 kg/m3
343.16 K, 207.1 kPa | 957.3 kg/m3
343.16 K, 207.4 kPa | 957.3 kg/m3 and 957.1 kg/m3
343.16 K, 207.6 kPa | 957.2 kg/m3 and 957.1 kg/m3
343.16 K, 207.8 kPa | 957.3 kg/m3
343.16 K, 207.9 kPa | 957.3 kg/m3 and 957.2 kg/m3
343.16 K, 208 kPa | 957.1 kg/m3 and 957.3 kg/m3
343.16 K, 208.1 kPa | 957.2 kg/m3 and 957.3 kg/m3
343.16 K, 208.5 kPa | 957.4 kg/m3 and 957.2 kg/m3 and 957.3 kg/m3
343.16 K, 208.6 kPa | 957.2 kg/m3 and 957.1 kg/m3
343.16 K, 208.7 kPa | 957.2 kg/m3
343.16 K, 209.9 kPa | 957.1 kg/m3
343.16 K, 210 kPa | 957.4 kg/m3 and 957.2 kg/m3
343.16 K, 210.2 kPa | 957.4 kg/m3
343.16 K, 210.4 kPa | 957.2 kg/m3
343.16 K, 210.6 kPa | 957.2 kg/m3
343.16 K, 210.9 kPa | 957.2 kg/m3
343.16 K, 211.1 kPa | 957.3 kg/m3 and 957.2 kg/m3
343.16 K, 211.3 kPa | 957.2 kg/m3 and 957.3 kg/m3
343.16 K, 211.4 kPa | 957.3 kg/m3
343.16 K, 211.6 kPa | 957.2 kg/m3
343.16 K, 211.8 kPa | 957.2 kg/m3
343.16 K, 211.9 kPa | 957.4 kg/m3 and 957.2 kg/m3 and 957.5 kg/m3
343.16 K, 212.1 kPa | 957 kg/m3
343.16 K, 212.3 kPa | 957.3 kg/m3
343.16 K, 212.6 kPa | 957.3 kg/m3
343.16 K, 214.2 kPa | 957.2 kg/m3 and 957.4 kg/m3
343.16 K, 214.4 kPa | 957.2 kg/m3
343.16 K, 214.5 kPa | 957.3 kg/m3
343.16 K, 214.6 kPa | 957.2 kg/m3
343.16 K, 214.7 kPa | 957.2 kg/m3
343.16 K, 214.9 kPa | 957.3 kg/m3 and 957.2 kg/m3
343.16 K, 215.1 kPa | 957.2 kg/m3
343.16 K, 215.8 kPa | 957.2 kg/m3
343.16 K, 216.1 kPa | 957.3 kg/m3 and 957.1 kg/m3
343.16 K, 216.3 kPa | 957.3 kg/m3 and 957.4 kg/m3
343.16 K, 216.8 kPa | 957.4 kg/m3
343.16 K, 217 kPa | 957.3 kg/m3 and 957.2 kg/m3
343.16 K, 217.5 kPa | 957.4 kg/m3 and 957.3 kg/m3
343.16 K, 217.7 kPa | 957.1 kg/m3 and 957.5 kg/m3 and 957.2 kg/m3
343.16 K, 217.9 kPa | 957.3 kg/m3 and 957.2 kg/m3
343.16 K, 218 kPa | 957.2 kg/m3 and 957.3 kg/m3
343.16 K, 218.2 kPa | 957.3 kg/m3 and 957.2 kg/m3
343.16 K, 218.6 kPa | 957.3 kg/m3 and 957.2 kg/m3
343.16 K, 218.7 kPa | 957.4 kg/m3
343.16 K, 219.6 kPa | 957.3 kg/m3
343.16 K, 219.8 kPa | 957.3 kg/m3
343.16 K, 221 kPa | 957.2 kg/m3
343.16 K, 221.2 kPa | 957.2 kg/m3 and 957.3 kg/m3
343.16 K, 221.3 kPa | 957.3 kg/m3
343.16 K, 221.5 kPa | 957.2 kg/m3
343.16 K, 221.7 kPa | 957.1 kg/m3 and 957.3 kg/m3
343.16 K, 221.9 kPa | 957.2 kg/m3
343.16 K, 222.1 kPa | 957.3 kg/m3
343.16 K, 222.2 kPa | 957.3 kg/m3 and 957.2 kg/m3
343.16 K, 222.4 kPa | 957.3 kg/m3
343.16 K, 222.6 kPa | 957.3 kg/m3 and 957.2 kg/m3
343.16 K, 224.6 kPa | 957.2 kg/m3
343.16 K, 224.8 kPa | 957.1 kg/m3
343.16 K, 225.2 kPa | 957.3 kg/m3
343.16 K, 225.5 kPa | 957.3 kg/m3 and 957.2 kg/m3
343.16 K, 225.7 kPa | 957.2 kg/m3
343.16 K, 226 kPa | 957.2 kg/m3
343.16 K, 226.2 kPa | 957.2 kg/m3
343.16 K, 226.4 kPa | 957.1 kg/m3
343.16 K, 226.6 kPa | 957.3 kg/m3
343.16 K, 226.7 kPa | 957.2 kg/m3
343.16 K, 227.3 kPa | 957.3 kg/m3
343.16 K, 227.4 kPa | 957.3 kg/m3
343.16 K, 227.6 kPa | 957.3 kg/m3
343.16 K, 227.8 kPa | 957.3 kg/m3
343.16 K, 227.9 kPa | 957.2 kg/m3
343.16 K, 228 kPa | 957.3 kg/m3 and 957.2 kg/m3
343.16 K, 228.1 kPa | 957.4 kg/m3
343.16 K, 228.3 kPa | 957.1 kg/m3 and 957.2 kg/m3
343.16 K, 228.8 kPa | 957.2 kg/m3 and 957.3 kg/m3
343.16 K, 229 kPa | 957.3 kg/m3
343.16 K, 229.2 kPa | 957.3 kg/m3 and 957.2 kg/m3
343.16 K, 229.3 kPa | 957.2 kg/m3
343.16 K, 229.7 kPa | 957.1 kg/m3 and 957.3 kg/m3
343.16 K, 229.9 kPa | 957.3 kg/m3
343.16 K, 230.1 kPa | 957.4 kg/m3
343.16 K, 230.4 kPa | 957.3 kg/m3
343.16 K, 230.6 kPa | 957.2 kg/m3
343.16 K, 230.7 kPa | 957.2 kg/m3
343.16 K, 230.9 kPa | 957.3 kg/m3
343.16 K, 231.4 kPa | 957.1 kg/m3
343.16 K, 239.3 kPa | 957.2 kg/m3
343.16 K, 239.4 kPa | 957.2 kg/m3
343.16 K, 239.6 kPa | 957.3 kg/m3
343.16 K, 239.8 kPa | 957.2 kg/m3
343.16 K, 239.9 kPa | 957.3 kg/m3
343.16 K, 241.9 kPa | 957.3 kg/m3
343.16 K, 246.2 kPa | 957.2 kg/m3
343.16 K, 246.5 kPa | 957.2 kg/m3
343.16 K, 246.9 kPa | 957.2 kg/m3
343.16 K, 247.1 kPa | 957.2 kg/m3
343.16 K, 247.2 kPa | 957.3 kg/m3
343.16 K, 247.4 kPa | 957.3 kg/m3
343.16 K, 247.6 kPa | 957.2 kg/m3 and 957.3 kg/m3
343.16 K, 247.8 kPa | 957.2 kg/m3 and 957.3 kg/m3
343.16 K, 247.9 kPa | 957.4 kg/m3 and 957.3 kg/m3
343.16 K, 248.1 kPa | 957.4 kg/m3
343.16 K, 248.3 kPa | 957.3 kg/m3
343.16 K, 248.6 kPa | 957.3 kg/m3
343.16 K, 248.8 kPa | 957.3 kg/m3 and 957.2 kg/m3
343.16 K, 249 kPa | 957.2 kg/m3
343.16 K, 249.2 kPa | 957.2 kg/m3
343.16 K, 249.8 kPa | 957.2 kg/m3
343.16 K, 250.4 kPa | 957.2 kg/m3
343.16 K, 250.6 kPa | 957.3 kg/m3
343.16 K, 250.7 kPa | 957.1 kg/m3
343.16 K, 250.9 kPa | 957.3 kg/m3 and 957.2 kg/m3
